In one experiment the test system is TCF-4. Description: Western blot of nuclear TCF-4 expression after LM treatment. As to conditions: 10 μM, 24 hrs; poorly-differentiated cells (Focus); normalized by lamin; FIG. 1. The format is cell-based. On the procedure: Focus and Hub7 cells were treated with 10 μM of lenalidomide (“LM”) in DMSO or DMSO as a control for 24 hrs. Nuclear and cytosolic proteins were separately extracted and the expression of TCF-4 was analyzed by western blot. Nuclear expression of both long and short isoforms of TCF-4 was qualified using ImageJ (NIH) and normalized by expression of lamin.

Experiment [1] has as its system Focus cells (poorly differentiated HCC cell line). Description: Cell migration assay (migration chamber), Focus cell line. The experiment is classed as cell-based. On the procedure: (§1) Focus and Hub7 cells were treated with 10 μM of LM in DMSO or DMSO as a control for 24 hrs. The cells were transferred in a migration chamber (BD Biosciences). The lower chamber was filled with 10% FBS-containing medium as a chemoattractant and was separated from the upper chamber by a 8 μm pore membrane. After 16 hrs, the remaining cells in the upper chamber (non-migrated cells) were removed and the cell attached to the bottom of the membrane (migrated cells) were stained with crystal violet and counted using Stereologer (SRC) in 10 different fields of the membrane.
(§2) In another set of experiments, the effects of LM and Compound A on HCC cell migration and invasion were assessed using procedures similar to those described above using FOCUS cell line (poorly differentiated HCC cell line).

The test system is the same in experiment [2]. In words: Cell invasion assay (Matrigel-coated chamber), Focus cell line. The format is cell-based. On the procedure:
(§3) Focus and Hub7 cells were treated with 10 μM of LM in DMSO or DMSO as a control for 24 hrs. The cells were transferred in a migration chamber coated with Matrigel (BD Biosciences). After 16 hrs, invasive cells attached to the bottom of the membrane were stained/counted and normalized by the number of migrative cells in a corresponding non-coated migration chamber.
as §2

Experiment [3] has as its system HAK-1A cell line (well differentiated HCC cell line). In words: Cell migration assay (migration chamber), HAK-1A cell line. To be noted: FIG. 3. The experiment is classed as cell-based.
Experiment [4] concerns HAK-1B cell line (poorly differentiated HCC cell line). Description: Cell migration assay (migration chamber), HAK-1B cell line. The experiment is classed as cell-based. As to conditions: FIG. 4. On the procedure:
as §1
(§4) In another set of experiments, the effects of LM and Compound A on HCC cell migration and invasion were assessed using procedures similar to those described above, except that HAK-1B cell line (poorly differentiated HCC cell line) was employed.

Experiment [5] deals with HAK-1A cell line (well differentiated HCC cell line). Description: Wound healing assay, HAK-1A cell line. The experiment is classed as cell-based. As to conditions: FIG. 6. As for the experimental part: In another set of experiments, the effects of LM and Compound A on HCC cell migration were assessed using wound healing assay in HAK-1A cell line (well differentiated HCC cell line). The following procedures were used.
(§5) 1. Cell seeding: A grid on the underside of the plate (60 mm) was drawn according to the paper diagram. Cells were seeded on 60 mm dish (aimed for confluent cells).
(§6) 2. Scratch wound: Using a tip (green), a scratch wound was made. The locations of the wounds were recorded by drawing on a paper. SF DMEM+trypsin aliquot was retrieved from the incubator, and the media/floating cells from the dish was aspirated. Cells were washed with DMEM+Trypsin to remove cells that have not been completely scratched away from the wound. Then the dish was filled with 4 ml of 10% FBS DMEM.
(§7) 3. Taking photographs: The marker was included on the top of the image frame so the same wound area can be kept track of. Then pictures of those wounds for the indicated time points were taken. Results were expressed as percentage of wound closure, as an index of cell migration, normalized to the initial width.

In experiment [6] the test system is FOCUS cell line (poorly differentiated HCC cell line). Description: Wound healing assay, FOCUS cell line. The experiment is classed as cell-based. As to conditions: FIG. 7. On the procedure:
as §5, §6, §7
In another set of experiments, the effects of LM and Compound A on HCC cell migration were assessed using wound healing assay in FOCUS cell line (poorly differentiated HCC cell line).

Experiment [7] concerns HAK1A-J xenograft. Description: HAK1A-J xenograft models, pilot study (tumor volume). The experiment is classed as in vivo, mice. To be noted: compared with control, FIG. 19. On the procedure: Effects of LM and Compound A in HAK1A-J xenograft models were examined in a pilot study using 5 animals (mice). Anti-tumor effects of LM and Compound A were assessed following the xenograft by measuring tumor volume after the treatment by the drugs.

Experiment [8] concerns HAK1A-J xenograft. Description: HAK1A-J xenograft models (tumor volume). The experiment is classed as in vivo. As to conditions: male mice; compared with control or LM treated mice; FIG. 21. As for the experimental part:
Effects of LM and Compound A in HAK1A-J xenograft models were examined using 50 male mice 4 weeks of age. Anti-tumor effects of LM and Compound A were assessed following the xenograft by measuring tumor volume after the treatment by the drugs.

Experiment [9] has as its system TCF-4J isoform dependent target genes. In words: qRT-PCR of TCF-4J responsive target genes in xenograft tumors. The experiment is classed as in vivo, mice. As to conditions: for mRNA expression: HAK1A-J xenograft models, legend of FIG. 22, genes not named. On the procedure: Effects of LM and Compound A on expression of TCF-4J responsive target genes in HAK-1A xenograft tumors were assessed by measuring mRNA expression levels of TCF-4J isoform dependent target genes in xenograft tumors treated with LM, Compound A and control vehicle. The following procedures were used: Total RNA was extracted from tumors using TRIzol Reagent, and reverse transcription was performed with First Strand cDNA Synthesis Kit for RT-PCR (AMV). Quantitative real-time PCR was carried out on a Mastercycler ep realplex instrument and software, using SYBR Green PCR reagents. Relative quantification was performed using ΔΔCt method, normalizing to 18S rRNA. Dissociation curves were generated to evaluate PCR product specificity and purity.

Experiment [10] has as its system HAK-1B cell line (poorly differentiated HCC cell line). In words: Cell invasion assay (Matrigel-coated chamber), HAK-1B cell line. The format is cell-based. As to conditions: HAK-1B (printed HAK-1AB), FIG. 4. As for the experimental part:
as §3, §4

The test system is the same in experiment [11]. Description: Wound healing assay, HAK-1B cell line. The format is cell-based. To be noted: FIG. 8. As for the experimental part:
as §5, §6, §7
In another set of experiments, the effects of LM and Compound A on HCC cell migration were assessed using wound healing assay in HAK-1B cell line (poorly differentiated HCC cell line).

Experiment [12] concerns HCC cell lines Huh7, FOCUS, HAK-1A and HAK-1B. Description: MTS assay (cytotoxicity). The format is cell-based. To be noted: 24 or 72 hours; FIG. 17. As for the experimental part: MTS assay was performed to evaluate the toxicity of Compound A for HCC cell lines Huh7, FOCUS, HAK-1A and HAK-1B. Compound A, at various concentrations ranging from […], was incubated with the specified cells for 24 or 72 hours.

The mark [13] stands for this setting: another set of experiments, FOCUS, poorly differentiated, FIG. 5.
Where [14] appears, read: xenograft tumors, ΔΔCt, normalized to 18S rRNA, FIG. 22.

As to `Nc1cccc2c1CN(C1CCC(=O)NC1=O)C2=O` (stereo not drawn) [LM, 1-oxo-2-(2,6-dioxopiperidin-3-yl)-4-aminoisoindoline, reference compound], the “TCF-4 expression, short and long forms (nuclear)” value in the experiment on TCF-4 is “decreased”. Besides, the cell migration result is “inhibited cell migration” in experiment [1] (10 μM, 24 hrs, migrated cells counted after 16 hrs, Focus, FIG. 2); “did not inhibit cell migration” in experiment [1] (setting [13]); “did not affect the cell migration” in experiment [3]; “inhibited cell migration” in experiment [4]. Besides, the cell invasion result was “inhibited cell invasion” in experiment [2] (10 μM, 24 hrs, invasive cells after 16 hrs, normalized by migrative cells, Focus, FIG. 2) and “inhibited cell invasion” in experiment [2] (setting [13]). Also, the “cell migration (wound closure)” value in [5] is listed as “did not affect the cell migration”; in [6], “reduced cell migration”. For the same compound, the values for the tumor volume result in the experiment with HAK1A-J xenograft [7] and with HAK1A-J xenograft [8] were “significantly reduced the volume of tumors” and “reduction of tumor volume was observed”, respectively. Also, the mRNA expression result in experiment [9] is reported as “reduction of mRNA expression”.
`Cc1nc2cccc(N)c2c(=O)n1C1CCC(=O)NC1=O` (stereo not drawn) [Compound A, 3-(5-amino-2-methyl-4-oxo-4H-quinazolin-3-yl)-piperidine-2,6-dione]: the cell migration result in experiment [1] (setting [13]) was “did not inhibit cell migration”; in [3], “did not affect the cell migration”; in experiment [4] it was “inhibited cell migration”. Also, the cell invasion entry in [2] (setting [13]) and in [10] was “inhibited cell invasion” each time. For the same compound, the “cell migration (wound closure)” value is “did not affect the cell migration” in [5], “reduced cell migration” in experiment [6] and “reduced cell migration” in experiment [11]. Moreover, in experiment [12], the HCC cell proliferation result is given as “no effect on HCC cell proliferation”. Besides, the tumor volume entry is recorded as “significantly reduced the volume of tumors” in the experiment with HAK1A-J xenograft [7] and “much more significantly reduced the volume of tumors” in the experiment on HAK1A-J xenograft [8]. Further, the mRNA expression entry in experiment [9] is “reduction of mRNA expression”. The “mRNA level of ANXA1” value in experiment [9] (setting [14]) is “reduced”. Also, the “mRNA level of ASPH” value in experiment [9] (setting [14]) was “reduced”. In addition, the “mRNA level of CAMK2N1” value in experiment [9] (setting [14]) is reported as “reduced”. The “mRNA level of CLDN2” value in experiment [9] (setting [14]) is given as “reduced”. In addition, in [9] (setting [14]), the “mRNA level of GPR56” value is on record as “reduced”. Moreover, the “mRNA level of JAG1” value in [9] (setting [14]) is given as “reduced”.

These data come from patent publication US8901110B2, “Use of biomarkers in methods for the treatment of hepatocellular carcinoma” (Celgene Corporation, priority 2012, dated 2014).
